Results reported in PMC12410758, “A novel sulfamoylphenyl-dihydro-thiadiazole derivative as a dual EGFR and carbonic anhydrase inhibitor for cancer therapy” (PLOS One, 2025).
Read-outs that look alike come from different tables or passages of the source.

Experiments:
MDA-MB-231 cells [1] = test: MTT cytotoxicity, MDA-MB-231; conditions: for IC50: read-out: In vitro Cytotoxicity IC50 (µM) MDA-231, mean ± SEM of three independent experiments; for Average of Relative viability of cells (%) MDA-231: 24 h
Method: (§1) The cell lines mentioned above were used to determine the inhibitory effects of compounds on cell growth
(§2) using the MTT assay. This colorimetric assay is based on the conversion of the yellow tetrazolium bromide (MTT) to a purple formazan derivative by mitochondrial succinate dehydrogenase in viable cells. Cell lines
(§3) Antibiotics added were 100 units/ml penicillin and 100µg/ml streptomycin at 37 C in a 5% Co2 incubator. The cell lines were seedesin a 96-well
(§4) plate at a density of 1.0x10^4 cells/well. at 37 C for 48 h under 5% Co2. After incubation the cells were treated
(§5) with different concentration of compounds and incubated for 24 h. After 24 h of drug treatment, 20 µl of MTT solution at 5mg/ml was added and incubated for 4 h. Dimethyl sulfoxide (DMSO) in volume of 100 µl is
(§6) added into each well to dissolve the purple formazan formed. The colorimetric assay is measured and recorded
(§7) The relative cell viability in percentage was
(§8) calculated as (A570 of treated samples/A570 of untreated sample) X 100.

[2] = MTT safety assay, non-cancerous Vero cells; format: cell-based; conditions: African green monkey, mean ± SEM of three independent experiments, read-out: In vitro Cytotoxicity IC50 (µM) Vero
Method: The cell line (Vero) was obtained from ATCC via Holding company for biological products and vaccines
(VACSERA) , Cairo, Egypt.
The different cell line mentioned above were used to determine the inhibitory effects of compounds on c ell growth using the MTT assay. This colorimetric assay is based on the conversion of the yellow tetrazolium
bromide (MTT) to a purple formazan derivative by mitochondrial succinate dehydrogenase in viable cells.
Antibiotics added were 100
units/ml penicillin and 100µg/ml streptomycin at 37 C in a 5% Co2 incubator. The cellswere seedesin a 96-
well plate at a density of 1.0x10^4 cells/well.at 37 C for 48 h under 5% Co2. After incubation the cells were treated with different concentration of compounds and incubated for 24 h. After 24 h of drug treatment, 20 µl
of MTT solution at 5mg/ml was added and incubated for 4 h. Dimethyl sulfoxide(DMSO) in volume of 100µl
is added into each well to dissolve the purple formazan formed. The colorimetric assay is measured and
The relative cell viability in percentage
was calculated as (A570 of treated samples/A570 of untreated sample) X 100.

MCF-7 cells = test: MTT cytotoxicity, MCF-7; conditions: for IC50: read-out: In vitro Cytotoxicity IC50 (µM) MCF-7, mean ± SEM of three independent experiments; for Average of Relative viability of cells (%) MCF-7: 24 h
Method: as §1, §2, §3, §4, §5, §6, §7, §8

MDA-MB-231 cells [3] = test: qRT-PCR of apoptotic markers in MDA-MB-231 cells; conditions: 16.13 µM, 72 h, control set to 1, mean ± SEM
Method: Quantitative Reverse Transcription-Poly¬merase Chain Reaction (qRT-PCR) Analysis
Cells were seeded in T-25 cm2 tissue culture flasks 24h before treatment with DMSO vehicle (0.01%) or
Total RNA was extracted, reverse transcribed, and assayed
for BAX, Bcl-2, caspases-8, and caspases-9 genes expression by quantitative RT-PCR. ß-actin serves as the
housekeeping gene. The quantity of BAX, Bcl-2, Caspase-8 and Caspase-9 mRNA in control and compound
Total RNA from vehicle-treated control
(0.01% DMSO) and 14-treated MDA-231 cells were extracted as-per the manufacturer instructi¬ons (RNeasy
mini kit, Qiagen, Germany). After RNA extraction, cDNA was prepared using the Revert Aid First Strand
cDNA Synthesis kit (Thermo Scientific, USA). Amplification of target cDNA for apoptosis markers and ß-
actin [as a normalization (housekeeping) gene] was done using one-step RT-PCR SYBR® Green kit Master Mix (Bio‐Rad Laboratories, USA) on Rotor-Gene Q real-time PCR thermal cycler instrument. cDNA (2 μl
aliquots) was mixed with 1 μl of forward primer, 1 μl reverse primer (Table below), 10 μl master mixture,
and the reaction volume was completed to 20 μl with nuclease-free water. All experiments were performed in

MDA-MB-231 cells [4] = test: Cell cycle analysis, PI flow cytometry; format: cell-based; conditions: 16.13 µM, 48 h
EGFR [5] = target: T1, EGFR (Homo sapiens, UniProt P00533); test: In vitro EGFR inhibition (EGFR Kinase Assay Kit, BPS Bioscience); format: biochemical; conditions: mean ± SEM of three independent experiments
T1 construct: purchased BPS Bioscience, USA
Method: (§9) • The in vitro inhibitory activity of the tested compounds against EGFR was accomplished using EGFR
(§10) Kinase Assay Kit (BPS Bioscience, USA) at different dilutions of 1000, 300, 100, 30, 10, 3, 1, and 0.3 nM.
In vitro carbonic anhydrase inhibition

MDA-MB-231 cells [6] = test: Apoptosis analysis, Annexin V-FITC/PI flow cytometry
Method: Apoptosis detection was carried out using Annexin V fluorescein isothiocyanate (V-FITC)/PI kit according to the reported procedures. MDA-MB-231cells cells were seeded and incubated for 24 h, then treated with
The cells were then collected, washed 3 times with PBS, fixed with ice-
cold absolute ethanol (70%) and stained with Annexin-V-FITC/propidium iodide (PI) using a double staining
kit for 20 min in the dark. Epics XL-MCL™ Flow Cytometer was used to evaluate the apoptosis.

hCA_IX = target: T2, hCA_IX (Homo sapiens, UniProt Q16790); test: In vitro carbonic anhydrase (IX) inhibition (assay kit, BPS Bioscience); format: biochemical; conditions: mean ± SEM of three independent experiments
T2 construct: purchased BPS Bioscience, USA
Method: as §9, §10
In vitro carbonic anhydrase inhibition

hCA_XII = target: T3, hCA_XII (Homo sapiens, UniProt O43570); test: In vitro carbonic anhydrase (XII) inhibition (assay kit, BPS Bioscience); format: biochemical; conditions: mean ± SEM of three independent experiments
T3 construct: purchased BPS Bioscience, USA

EGFR [7] = target: T1, EGFR; parameters: method as in PMID 35896557; conditions: read-out: EGFR inhibition IC50; cited from earlier work
MDA-MB-231 = system: MDA-MB-231; parameters: method as in PMID 35896557; conditions: read-out: anti-proliferative IC50, MDA-MB-231; cited from earlier work
T-47D = system: T-47D; parameters: method as in PMID 35896557; conditions: read-out: anti-proliferative IC50, T-47D; cited from earlier work
MDA-MB-231 cells [8] = system: MDA-MB-231 cells; parameters: method as in PMID 35896557; conditions: cited from earlier work

T1 sequence (P00533 25-1210): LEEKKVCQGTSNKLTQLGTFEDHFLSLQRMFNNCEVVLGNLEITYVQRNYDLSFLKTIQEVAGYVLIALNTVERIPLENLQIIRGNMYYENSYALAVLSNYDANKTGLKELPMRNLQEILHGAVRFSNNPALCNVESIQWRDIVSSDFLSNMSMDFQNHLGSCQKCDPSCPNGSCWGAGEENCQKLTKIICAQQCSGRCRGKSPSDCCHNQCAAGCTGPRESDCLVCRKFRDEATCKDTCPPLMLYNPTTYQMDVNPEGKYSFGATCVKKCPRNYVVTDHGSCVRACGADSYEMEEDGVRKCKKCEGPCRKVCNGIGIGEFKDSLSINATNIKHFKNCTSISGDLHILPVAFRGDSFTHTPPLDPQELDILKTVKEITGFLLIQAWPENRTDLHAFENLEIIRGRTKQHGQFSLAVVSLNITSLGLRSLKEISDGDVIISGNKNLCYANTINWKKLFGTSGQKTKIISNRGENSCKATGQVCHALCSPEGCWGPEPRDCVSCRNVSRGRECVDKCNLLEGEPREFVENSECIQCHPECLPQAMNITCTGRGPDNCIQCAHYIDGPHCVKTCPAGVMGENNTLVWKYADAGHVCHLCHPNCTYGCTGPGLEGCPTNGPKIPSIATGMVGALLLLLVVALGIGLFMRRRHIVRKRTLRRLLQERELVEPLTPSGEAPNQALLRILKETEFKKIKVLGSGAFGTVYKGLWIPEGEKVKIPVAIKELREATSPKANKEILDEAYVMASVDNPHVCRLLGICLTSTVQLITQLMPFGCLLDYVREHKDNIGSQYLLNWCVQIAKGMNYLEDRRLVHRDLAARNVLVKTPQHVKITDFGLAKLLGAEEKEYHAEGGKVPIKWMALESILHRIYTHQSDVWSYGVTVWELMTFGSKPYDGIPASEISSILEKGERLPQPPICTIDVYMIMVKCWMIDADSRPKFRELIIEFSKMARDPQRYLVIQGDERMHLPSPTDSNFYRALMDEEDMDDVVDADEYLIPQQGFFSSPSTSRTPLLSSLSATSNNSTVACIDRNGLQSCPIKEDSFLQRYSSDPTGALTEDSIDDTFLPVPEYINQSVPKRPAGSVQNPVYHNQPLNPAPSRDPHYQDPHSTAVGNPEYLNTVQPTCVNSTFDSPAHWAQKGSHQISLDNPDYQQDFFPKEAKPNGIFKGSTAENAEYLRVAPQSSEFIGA
T3 sequence (O43570 25-354): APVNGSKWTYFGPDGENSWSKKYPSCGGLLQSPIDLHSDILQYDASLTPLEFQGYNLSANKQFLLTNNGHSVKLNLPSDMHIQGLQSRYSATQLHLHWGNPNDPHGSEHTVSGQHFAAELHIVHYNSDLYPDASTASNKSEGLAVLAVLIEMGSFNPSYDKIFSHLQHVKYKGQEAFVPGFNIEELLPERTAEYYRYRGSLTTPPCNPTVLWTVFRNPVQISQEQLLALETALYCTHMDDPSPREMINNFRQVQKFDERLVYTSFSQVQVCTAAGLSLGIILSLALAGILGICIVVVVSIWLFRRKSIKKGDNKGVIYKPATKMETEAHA

CC(=O)Nc1nnc(S(N)(=O)=O)s1 [Acetazolamide, reference compound]
IC50 (MDA-MB-231 cells [1]): 7.64 ± 0.4 µM | IC50 at 24 h [2]: 77.57 ± 0.57 µM | IC50 (MCF-7 cells): 7.26 ± 0.3 µM

CCOC(=O)c1nn(-c2ccc(S(N)(=O)=O)cc2)/c(=N/N=C(\C)c2ccc(NC(C)=O)cc2)s1 [Compound 14, Ethyl (Z)-5-(((E)-1-(4-acetamidophenyl)ethylidene)hydrazineylidene)-4-(4-sulfamoylphenyl)-4,5-dihydro-1,3,4-thiadiazole-2-carboxylate]
Gene expression (Fold Change) BAX (MDA-MB-231 cells [3]): 3.06 ± 0.18 Fold Change | Gene expression (Fold Change) BAX/Bcl-2 ratio (MDA-MB-231 cells [3]): 5.56 ± 0.69 Fold Change | Gene expression (Fold Change) Bcl-2 (MDA-MB-231 cells [3]): 0.55 ± 0.05 Fold Change | Gene expression (Fold Change) Caspases-8 (MDA-MB-231 cells [3]): 2.37 ± 0.07 Fold Change | Gene expression (Fold Change) Caspases-9 (MDA-MB-231 cells [3]): 2.26 ± 0.15 Fold Change | Cell cycle distribution (%) % G2/M (MDA-MB-231 cells [4]; untreated 10.59): 7.94% | Cell cycle distribution (%) %Sub-G1 (MDA-MB-231 cells [4]; untreated 19.48): 19.18% | Cell cycle distribution (%) %S (MDA-MB-231 cells [4]; untreated 24.95): 23.78% | Cell cycle distribution (%) %G1 (MDA-MB-231 cells [4]; untreated 44.98): 49.10% | IC50 (EGFR [5]): 10.1 ± 0.29 nM | Apoptosis Late (MDA-MB-231 cells [6]; 16.13 µM, 48 h, MDA-MB-231, untreated 0.32): 58.27% | Necrosis (MDA-MB-231 cells [6]; 16.13 µM, 48 h, MDA-MB-231, untreated 0.45): 0.03% | Apoptosis Early (MDA-MB-231 cells [6]; 16.13 µM, 48 h, MDA-MB-231, untreated 3.84): 22.50% | viability at 16.13 µM (MDA-MB-231 cells [6]; Homo sapiens, MDA-MB-231, 48 h, read-out: Viable cells): 19.2% | IC50 (hCA_IX): 79 ± 0.3 nM | IC50 (hCA_XII): 58 ± 0.3 nM | Average of Relative viability of cells (%) MDA-231 (MDA-MB-231 cells [1]; 1.56 µM): 100% | Average of Relative viability of cells (%) MDA-231 (MDA-MB-231 cells [1]; 3.125 µM): 86.3% | Average of Relative viability of cells (%) MDA-231 (MDA-MB-231 cells [1]; 6.25 µM): 69.9% | Average of Relative viability of cells (%) MDA-231 (MDA-MB-231 cells [1]; 12.5 µM): 51.0% | Average of Relative viability of cells (%) MDA-231 (MDA-MB-231 cells [1]; 25 µM): 38.6% | Average of Relative viability of cells (%) MDA-231 (MDA-MB-231 cells [1]; 50 µM): 26.1% | Average of Relative viability of cells (%) MDA-231 (MDA-MB-231 cells [1]; 100 µM): 18.5% | IC50 (MDA-MB-231 cells [1]): 16.1 ± 1.2 µM | IC50 at 24 h [2]: 148.3 ± 1.22 µM | Average of Relative viability of cells (%) MCF-7 (MCF-7 cells; 1.56 µM): 100% | Average of Relative viability of cells (%) MCF-7 (MCF-7 cells; 3.125 µM): 90.3% | Average of Relative viability of cells (%) MCF-7 (MCF-7 cells; 6.25 µM): 71.7% | Average of Relative viability of cells (%) MCF-7 (MCF-7 cells; 12.5 µM): 57.6% | Average of Relative viability of cells (%) MCF-7 (MCF-7 cells; 25 µM): 46.5% | Average of Relative viability of cells (%) MCF-7 (MCF-7 cells; 50 µM): 35.1% | Average of Relative viability of cells (%) MCF-7 (MCF-7 cells; 100 µM): 24.4% | IC50 (MCF-7 cells): 22.6 ± 1.5 µM

COc1ccc(/C=C2/SC(N3N=C(c4cccc5ccccc45)CC3c3ccc(F)cc3)=NC2=O)cc1O (centres unmarked) [compound III]
IC50 (EGFR [7]): 0.267 µM | IC50 (MDA-MB-231): 3.14 µM | IC50 (T-47D): 0.62 µM | apoptosis induction (MDA-MB-231 cells [8]): induced apoptosis | cell cycle arrest phase (MDA-MB-231 cells [8]): G2/M phase
